# Assays:
# Type in all cases: in vivo
# [1] = tested on: Cyperus serotinus, Rottb.; test: Preemergence weed control under flooded paddy conditions, CYPSE (Flatsedge); conditions: for CYPSE: herbicidal effect rating 0-9, three to four weeks after treatment; for herbicidal effect rating, CYPSE: rated three to four weeks after treatment; for herbicidal effect rating, CYPSE: meaning of each grade not given here
# Cyperus iria = test: Preemergence weed control under flooded paddy conditions, CYPIR (Rice Flatsedge); conditions: flooded paddy; for CYPIR: herbicidal effect rating 0-9, three to four weeks after treatment; for herbicidal effect rating, CYPIR: rated three to four weeks after treatment; for herbicidal effect rating, CYPIR: meaning of each grade not given here
# [2] = tested on: Echinochloa oryzoides (Ard.) Fritsch.; test: Preemergence weed control under flooded paddy conditions, ECHORC (Watergrass (Calif.)); conditions: flooded paddy; for ECHORC: herbicidal effect rating 0-9, three to four weeks after treatment; for herbicidal effect rating, ECHORC: rated three to four weeks after treatment; for herbicidal effect rating, ECHORC: meaning of each grade not given here
# [3] = tested on: Monochoria vaginalis, Presl.; test: Preemergence weed control under flooded paddy conditions, MOOVA (Monochoria); conditions: preemergence weeds, flooded paddy, herbicidal effect rating 0-9, three to four weeks after treatment
# Sagittaria pygmaea, L. = test: Preemergence weed control under flooded paddy conditions, SAGPY (Arrowhead (Pygmaea)); conditions: flooded paddy; for SAGPY: herbicidal effect rating 0-9, three to four weeks after treatment; for herbicidal effect rating, SAGPY: rated three to four weeks after treatment; for herbicidal effect rating, SAGPY: meaning of each grade not given here
# [4] = 0.0620 kg/ha, preemergence weeds
# [5] = 0.1250 kg/ha, preemergence weeds
# [6] = 0.2500 kg/ha, preemergence weeds
# [7] = 0.0320 kg/ha, preemergence weeds
# [8] = Rate 0.0320 kg/ha, preemergence
# [9] = Rate 0.0620 kg/ha, preemergence
# [10] = Rate 0.1250 kg/ha, preemergence
# [11] = Rate 0.2500 kg/ha, preemergence
# [12] = Rate 0.0320 kg/ha, preemergence weeds
# [13] = Rate 0.0620 kg/ha, preemergence weeds
# [14] = Rate 0.1250 kg/ha, preemergence weeds
# [15] = Rate 0.2500 kg/ha, preemergence weeds
smiles,measurement,setting,value
"Cn1c(C(F)(F)F)cc(=O)n(-c2ccc3snc(C(SCCO)SCCO)c3c2)c1=O [Example 419, 1,2-Benzisothiazole-3-carboxaldehyde, 5-[3,6-dihydro-3-methyl-2,6-dioxo-4-(trifluoromethyl)-1(2H)-pyrimidinyl]-, 3-[bis(2-hydroxyethyl)dithioacetal]]",CYPSE,[1]; [4],0.0
same,CYPSE,[1]; [5],0.0
same,CYPSE,[1]; [6],0.0
same,CYPIR,Cyperus iria; [4],0.0
same,CYPIR,Cyperus iria; [5],3.0
same,CYPIR,Cyperus iria; [6],6.0
same,ECHORC,[2]; [4],0.0
same,ECHORC,[2]; [5],2.0
same,ECHORC,[2]; [6],7.0
same,MOOVA,[3]; 0.0620 kg/ha,0.0
same,MOOVA,[3]; 0.1250 kg/ha,4.0
same,MOOVA,[3]; 0.2500 kg/ha,5.0
"CC(=O)OCCCSC(SCCCOC(C)=O)c1nsc2ccc(-n3c(=O)cc(C(F)(F)F)n(C)c3=O)cc12 [Example 426, 1,2-Benzisothiazole-3-carboxaldehyde, 5-[3,6-dihydro-3-methyl-2,6-dioxo-4-(trifluoromethyl)-1(2H)-pyrimidinyl]-, 3-[bis(3-hydroxypropyl)dithioacetal], diacetate (diester)]",CYPSE,[1]; [7],0.0
same,CYPSE,[1]; [4],0.0
same,CYPSE,[1]; [5],0.0
same,CYPSE,[1]; [6],2.0
same,SAGPY,"Sagittaria pygmaea, L.; [7]",0.0
same,SAGPY,"Sagittaria pygmaea, L.; [4]",2.0
same,SAGPY,"Sagittaria pygmaea, L.; [5]",4.0
same,SAGPY,"Sagittaria pygmaea, L.; [6]",4.0
same,CYPIR,Cyperus iria; [7],5.0
same,CYPIR,Cyperus iria; [4],7.0
same,CYPIR,Cyperus iria; [5],7.0
same,CYPIR,Cyperus iria; [6],9.0
same,ECHORC,[2]; [7],5.0
same,ECHORC,[2]; [4],5.0
same,ECHORC,[2]; [5],5.0
same,ECHORC,[2]; [6],9.0
"CC(OS(=O)(=O)C(C)C)c1nsc2ccc(-n3c(=O)cc(C(F)(F)F)n(C)c3=O)cc12 (centres unmarked) [Example 413, 2,4(1H,3H)-Pyrimidinedione, 3-[3-(1-hydroxyethyl)-1,2-benzisothiazol-5-yl]-1-methyl-6-(trifluoromethyl)-, 1-methylethanesulfonate (ester)]",CYPSE,[1]; [7],0.0
same,CYPSE,[1]; [4],3.0
same,CYPSE,[1]; [5],5.0
same,CYPSE,[1]; [6],9.0
same,CYPIR,Cyperus iria; [7],0.0
same,CYPIR,Cyperus iria; [4],2.0
same,CYPIR,Cyperus iria; [5],5.0
same,CYPIR,Cyperus iria; [6],7.0
same,ECHORC,[2]; [7],0.0
same,ECHORC,[2]; [4],0.0
same,ECHORC,[2]; [5],0.0
same,ECHORC,[2]; [6],6.0
same,MOOVA,[3]; 0.0320 kg/ha,7.0
same,MOOVA,[3]; 0.0620 kg/ha,9.0
same,MOOVA,[3]; 0.1250 kg/ha,9.0
same,MOOVA,[3]; 0.2500 kg/ha,9.0
"CC(=O)OCCOC(=O)COc1ccc(C)cc1-c1nsc2ccc(-n3c(=O)cc(C(F)(F)F)n(C)c3=O)cc12 [Example 578, Acetic acid, {{2-{5-[3,6-dihydro-3-methyl-2,6-dioxo-4-(trifluoromethyl)-1(2H)-pyrimidinyl]-1,2-benzisothiazol-3-yl}-p-tolyl}oxy}-, 2-hydroxyethyl ester, acetate (ester)]","herbicidal effect rating, CYPSE",[1]; [8],3.0
same,"herbicidal effect rating, CYPSE",[1]; [9],6.0
same,"herbicidal effect rating, CYPSE",[1]; [10],6.0
same,"herbicidal effect rating, CYPSE",[1]; [11],9.0
same,"herbicidal effect rating, SAGPY","Sagittaria pygmaea, L.; [8]",3.0
same,"herbicidal effect rating, SAGPY","Sagittaria pygmaea, L.; [9]",6.0
same,"herbicidal effect rating, SAGPY","Sagittaria pygmaea, L.; [10]",6.0
same,"herbicidal effect rating, SAGPY","Sagittaria pygmaea, L.; [11]",9.0
same,"herbicidal effect rating, CYPIR",Cyperus iria; [8],4.0
same,"herbicidal effect rating, CYPIR",Cyperus iria; [9],5.0
same,"herbicidal effect rating, CYPIR",Cyperus iria; [10],5.0
same,"herbicidal effect rating, CYPIR",Cyperus iria; [11],7.0
same,"herbicidal effect rating, ECHORC",[2]; [8],5.0
same,"herbicidal effect rating, ECHORC",[2]; [9],6.0
same,"herbicidal effect rating, ECHORC",[2]; [10],7.0
same,"herbicidal effect rating, ECHORC",[2]; [11],9.0
Cc1ccc(OCC(=O)NS(=O)(=O)CCl)c(-c2nsc3ccc(-n4c(=O)cc(C(F)(F)F)n(C)c4=O)cc23)c1 [Example 343],"herbicidal effect rating, CYPSE",[1]; [12],0.0
same,"herbicidal effect rating, CYPSE",[1]; [13],3.0
same,"herbicidal effect rating, CYPSE",[1]; [14],4.0
same,"herbicidal effect rating, CYPSE",[1]; [15],6.0
same,"herbicidal effect rating, SAGPY","Sagittaria pygmaea, L.; [12]",0.0
same,"herbicidal effect rating, SAGPY","Sagittaria pygmaea, L.; [13]",0.0
same,"herbicidal effect rating, SAGPY","Sagittaria pygmaea, L.; [14]",0.0
same,"herbicidal effect rating, SAGPY","Sagittaria pygmaea, L.; [15]",3.0
same,"herbicidal effect rating, CYPIR",Cyperus iria; [12],0.0
same,"herbicidal effect rating, CYPIR",Cyperus iria; [13],0.0
same,"herbicidal effect rating, CYPIR",Cyperus iria; [14],0.0
same,"herbicidal effect rating, CYPIR",Cyperus iria; [15],6.0
same,"herbicidal effect rating, ECHORC",[2]; [12],3.0
same,"herbicidal effect rating, ECHORC",[2]; [13],6.0
same,"herbicidal effect rating, ECHORC",[2]; [14],7.0
same,"herbicidal effect rating, ECHORC",[2]; [15],9.0
"Cc1ccc(OC(C)C(=O)[O-])c(-c2nsc3ccc(-n4c(=O)cc(C(F)(F)F)n(C)c4=O)cc23)c1.[Na+] (racemic) [Example 82, Sodium 2-{{2-{5-[3,6-dihydro-3-methyl-2,6-dioxo-4-(trifluoromethyl)-1(2H)-pyrimidinyl]-1,2-benzisothiazol-3-yl}-p-tolyl}oxy}propionate, DL-]","herbicidal effect rating, ECHORC","[2]; 0.0313 kg/ha, preemergence",9.0
same,"herbicidal effect rating, ECHORC","[2]; 0.0625 kg/ha, preemergence",9.0
same,"herbicidal effect rating, ECHORC","[2]; 0.1250 kg/ha, preemergence",9.0
same,"herbicidal effect rating, ECHORC","[2]; 0.2500 kg/ha, preemergence",9.0
